Results published in publication PMC4740573 (Clinical Drug Investigation, 2015).

Key:
[1] = system: activated partial thromboplastin time; experiment: Activated partial thromboplastin time; format: in vivo, human; conditions: for LS mean aPTT at 2 h after dosing: ANCOVA; for Activated partial thromboplastin time A max / Activated partial thromboplastin time A min / Activated partial thromboplastin time AUEτ: mean ± SD; for Activated partial thromboplastin time T max: median (minimum, maximum)
[2] = cited from earlier work
[3] = system: thrombin generation; experiment: Technothrombin thrombin generation assay; format: in vivo, human; conditions: for Endogenous thrombin potential A max / Endogenous thrombin potential A min / Lag time A max / Lag time A min / Peak thrombin A max / Peak thrombin A min / Time to peak A max / Time to peak A min / Velocity A max / Velocity A min: mean ± SD
[4] = Safety assessment; format: in vivo, human; conditions: healthy adult subjects
[5] = Plasma pharmacokinetics in healthy subjects; conditions: for T max: median (minimum, maximum); for AUC: AUCτ, 24 h dosing interval; for Cmax: C max, healthy subjects
[6] = day 4, edoxaban after switching from dabigatran etexilate (treatment 3)
[7] = day 4, edoxaban after switching from rivaroxaban (treatment 2)
[8] = day 4, edoxaban alone (treatment 1)
[9] = edoxaban after switching from dabigatran etexilate, day 4 (treatment 3)
[10] = edoxaban after switching from rivaroxaban, day 4 (treatment 2)
[11] = edoxaban alone, day 1 (treatment 1)
[12] = edoxaban alone, day 4 (treatment 1)

For `CN1CCc2nc(C(=O)N[C@@H]3C[C@@H](C(=O)N(C)C)CC[C@@H]3NC(=O)C(=O)Nc3ccc(Cl)cn3)sc2C1` [Edoxaban, edoxaban], the “LS mean aPTT at 2 h after dosing” value ([1]; day 4, after switching from dabigatran etexilate to edoxaban (treatment 3)) was 47.6 s, the “Activated partial thromboplastin time A max” value [1, 6] was 50.8 ± 8.92 s and the “Activated partial thromboplastin time A min” value [1, 6] was 30.0 ± 2.20 s. For the same molecule, the “Activated partial thromboplastin time AUEτ” value [1, 6] was 863 ± 87.3 s·h, the “Activated partial thromboplastin time T max” value [1, 6] was 1.00 (0.50, 3.00) h and the “Activated partial thromboplastin time A max” value [1, 7] was 36.5 ± 3.94 s. The “Activated partial thromboplastin time A min” value [1, 7] was 28.4 ± 2.13 s, the “Activated partial thromboplastin time AUEτ” value [1, 7] was 738 ± 58.6 s·h and the “Activated partial thromboplastin time T max” value [1, 7] was 1.00 (0.50, 4.00) h. The “LS mean aPTT at 2 h after dosing” value [1, 8] was 35.0 s, the “Activated partial thromboplastin time A max” value [1, 8] was 35.9 ± 3.15 s and the “Activated partial thromboplastin time A min” value [1, 8] was 27.7 ± 1.70 s. For the same molecule, the “Activated partial thromboplastin time AUEτ” value [1, 8] was 725 ± 48.8 s·h, the “Activated partial thromboplastin time T max” value [1, 8] was 1.50 (0.50, 4.00) h and the “time to peak effect on aPTT” value ([1]; edoxaban alone (treatment 1), return to baseline by 24 h) was 1 to 2 h. For the same molecule, the oral bioavailability [2] was “approximately 62%”, the terminal elimination half-life [2] was 10 to 14 h and the “time to peak plasma concentration and peak antithrombotic effect” value ([2]; oral) was 1 to 2 h. For the same molecule, the “ETP Amax” value ([3]; day 4, continual edoxaban treatment (treatment 1)) was 3644 ± 434 mN·min, the “Endogenous thrombin potential A max” value [3, 9] was 3338 ± 575 nM·min and the “Endogenous thrombin potential A min” value [3, 9] was 1239 ± 828 nM·min. The “Lag time A max” value [3, 9] was 55.3 ± 16.2 min, the “Lag time A min” value [3, 9] was 20.5 ± 3.60 min and the “Peak thrombin A max” value [3, 9] was 302 ± 77.0 nM. For the same molecule, the “Peak thrombin A min” value [3, 9] was 48.9 ± 25.2 nM, the “Time to peak A max” value [3, 9] was 74.0 ± 12.4 min and the “Time to peak A min” value [3, 9] was 27.5 ± 7.94 min. For the same molecule, the “Velocity A max” value [3, 9] was 46.5 ± 25.7 nM/min, the “Velocity A min” value [3, 9] was 2.13 ± 1.35 nM/min and the “Endogenous thrombin potential A max” value [3, 10] was 3680 ± 462 nM·min. The “Endogenous thrombin potential A min” value [3, 10] was 1506 ± 798 nM·min, the “Lag time A max” value [3, 10] was 39.9 ± 9.96 min and the “Lag time A min” value [3, 10] was 15.8 ± 3.54 min. For the same molecule, the “Peak thrombin A max” value [3, 10] was 324 ± 123 nM, the “Peak thrombin A min” value [3, 10] was 49.2 ± 31.9 nM and the “Time to peak A max” value [3, 10] was 59.4 ± 14.6 min. The “Time to peak A min” value [3, 10] was 22.0 ± 5.15 min, the “Velocity A max” value [3, 10] was 67.4 ± 46.6 nM/min and the “Velocity A min” value [3, 10] was 3.04 ± 2.88 nM/min. The “Endogenous thrombin potential A max” value [3, 11] was 3635 ± 432 nM·min, the “Endogenous thrombin potential A min” value [3, 11] was 1520 ± 754 nM·min and the “Lag time A max” value [3, 11] was 38.3 ± 8.59 min. The “Lag time A min” value [3, 11] was 15.8 ± 2.25 min, the “Peak thrombin A max” value [3, 11] was 323 ± 98.1 nM and the “Peak thrombin A min” value [3, 11] was 45.7 ± 25.5 nM. For the same molecule, the “Time to peak A max” value [3, 11] was 58.6 ± 12.6 min, the “Time to peak A min” value [3, 11] was 22.2 ± 4.13 min and the “Velocity A max” value [3, 11] was 61.4 ± 31.3 nM/min. The “Velocity A min” value [3, 11] was 2.62 ± 1.92 nM/min, the “Endogenous thrombin potential A max” value [3, 12] was 3644 ± 434 nM·min and the “Endogenous thrombin potential A min” value [3, 12] was 1474 ± 755 nM·min. The “Lag time A max” value [3, 12] was 37.8 ± 7.09 min, the “Lag time A min” value [3, 12] was 16.9 ± 2.41 min and the “Peak thrombin A max” value [3, 12] was 315 ± 90.6 nM. For the same molecule, the “Peak thrombin A min” value [3, 12] was 43.4 ± 25.1 nM, the “Time to peak A max” value [3, 12] was 58.5 ± 12.2 min and the “Time to peak A min” value [3, 12] was 23.7 ± 4.29 min. The “Velocity A max” value [3, 12] was 58.4 ± 31.9 nM/min, the “Velocity A min” value [3, 12] was 2.40 ± 1.89 nM/min and the tolerability [4] was “well tolerated”. For the same molecule, the T max ([5]; edoxaban day 4 after switching from dabigatran etexilate (treatment 3)) was 1.00 (0.50, 3.00) h, the T max ([5]; edoxaban day 4 after switching from rivaroxaban (treatment 2)) was 1.00 (0.50, 2.00) h and the Tmax ([5]; human, in vivo, 60 mg) was 1 h. For the same molecule, the AUC ([5]; human, in vivo, 60 mg, edoxaban alone, day 1 (treatment 1), mean ± SD) was 1780 ± 319 ng·h/mL, the AUC ([5]; human, in vivo, 60 mg, edoxaban alone, day 4 (treatment 1), mean ± SD) was 1990 ± 403 ng·h/mL and the AUC ([5]; human, in vivo, 60 mg, edoxaban day 4 after switching from dabigatran etexilate (treatment 3), mean ± SD) was 1680 ± 475 ng·h/mL. For the same molecule, the AUC ([5]; human, in vivo, 60 mg, edoxaban day 4 after switching from rivaroxaban (treatment 2), mean ± SD) was 1740 ± 353 ng·h/mL, the Cmax ([5]; human, in vivo, 60 mg, edoxaban 60 mg on day 4 after switching from dabigatran etexilate 150 mg twice daily for 3 days (treatment 3), mean ± SD) was 280 ± 124 ng/mL and the Cmax ([5]; human, in vivo, 60 mg, edoxaban 60 mg on day 4 after switching from rivaroxaban 20 mg once daily for 3 days (treatment 2), mean ± SD) was 288 ± 113 ng/mL. The Cmax ([5]; human, in vivo, 60 mg, edoxaban 60 mg once daily alone, day 1 (treatment 1), mean ± SD) was 309 ± 97.2 ng/mL, the Cmax ([5]; human, in vivo, 60 mg, edoxaban 60 mg once daily alone, day 4 (treatment 1), mean ± SD) was 303 ± 87.7 ng/mL and the concentration at 1 day ([5]; human, in vivo, 60 mg, C trough, edoxaban alone, day 1 (treatment 1), mean ± SD) was 14 ± 5.44 ng/mL. For the same molecule, the concentration at 4 day ([5]; human, in vivo, 60 mg, C trough, edoxaban alone, day 4 (treatment 1), mean ± SD) was 15.5 ± 3.98 ng/mL, the concentration at 4 day ([5]; human, in vivo, 60 mg, C trough, edoxaban day 4 after switching from dabigatran etexilate (treatment 3), mean ± SD) was 12.8 ± 4.13 ng/mL and the concentration at 4 day ([5]; human, in vivo, 60 mg, C trough, edoxaban day 4 after switching from rivaroxaban (treatment 2), mean ± SD) was 13.4 ± 5 ng/mL.

In the case of `CCCCCCOC(=O)NC(=N)c1ccc(NCc2nc3cc(C(=O)N(CCC(=O)OCC)c4ccccn4)ccc3n2C)cc1` [dabigatran etexilate], the tolerability [4] is reported as “well tolerated”.

In the case of `O=C(NC[C@H]1CN(c2ccc(N3CCOCC3=O)cc2)C(=O)O1)c1ccc(Cl)s1` [rivaroxaban], the tolerability [4] is reported as “well tolerated”.
